Data published in patent US4882420A, “Dihalo-statine substituted renin inhibitors” (The Upjohn Company, priority 1986, dated 1989).

Biological target: T1, renin (plasma renin activity of human plasma) (Homo sapiens, UniProt P00797)
T1 construct: Lyophilized human plasma with 0.1% EDTA is obtained from New England Nuclear; tissue New England Nuclear Plasma Renin Activity Control; host or cells: human plasma (lyophilized, reconstituted)
T1 sequence (P00797 67-406): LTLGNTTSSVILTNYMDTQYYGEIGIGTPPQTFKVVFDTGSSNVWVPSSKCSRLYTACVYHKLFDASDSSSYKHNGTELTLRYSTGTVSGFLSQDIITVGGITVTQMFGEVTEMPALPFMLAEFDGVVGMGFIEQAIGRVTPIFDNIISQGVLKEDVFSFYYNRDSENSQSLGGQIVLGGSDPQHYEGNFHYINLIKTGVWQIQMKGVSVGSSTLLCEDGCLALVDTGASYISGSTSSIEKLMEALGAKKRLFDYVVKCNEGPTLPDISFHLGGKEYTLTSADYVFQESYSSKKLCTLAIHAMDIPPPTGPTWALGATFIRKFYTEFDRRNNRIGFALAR
Experiment: GAMMACOAT plasma renin activity (PRA) radioimmunoassay, inhibition of angiotensin I generation in reconstituted human plasma
Assay type: biochemical
Details: for potency estimated from few doses: reconstituted lyophilized human plasma, 90 minutes at 37° C., estimated by plotting two inhibitor concentrations, read-out: IC50 (I50, concentration producing 50% inhibition of plasma renin activity)
Description: Lyophilized human plasma with 0.1% EDTA is obtained from New England Nuclear, North Billerica, Mass. 01862 as "Plasma Renin Activity Control". This lyophilized plasma is reconstituted, on the day of the assay, with cold sterile distilled water according to directions on the vial. The plasma renin activity (PRA) of the reconstituted plasma is assayed with "GAMMACOAT [^125 I] Plasma Renin Activity Radioimmunoassay Kit" supplied by Clinical Assays, a Division of Travenol Laboratories, Inc., Cambridge, Mass. 02139. The procedure used with these kits is carried out essentially as described in the literature which accompanies them. The initial (enzymatic generation of Angiotensin 1) step is modified slightly to accommodate the testing of renin inhibitors and to minimize the amount of plasma required to perform the assay. Thus, for every milliliter of reconstituted plasma used in the assay, there is added and vortexed 10 μl of PMSF (0.3M phenylmethylsulfonyl fluoride in ethanol) and 100 μl of maleate generation buffer, both provided in the kit. 250 μl of this mixture is then transferred to each tube used in the generation step along with 10 μl of the potential renin inhibitor suspended or dissolved in 1% Tween 80 in water. […]
In the case of renin inhibitory peptide (RIP), 100 μl of the 4° C. blank is added to a GAMMACOAT tube. […] The tubes are then counted in a gamma counter. The results of the RIP are evaluated with the Rodbard Radioimmunoassay Program and the plasma renin activity (PRA) is expressed as […]. […] In addition to I50 values, relative potencies are also calculated. A relative potency is determined by comparing the I50 of RIP to the I50 of the compound. However, it must be emphasized that relative potencies are calculated from the I50 obtained for RIP on the day the compound is assayed and not from the average I50 for RIP.
It has been determined that the GAMMACOAT-PRA assay is a suitable replacement for the RENAK assay (supplied by Hoffman-LaRoche and previously known as a diagnostic test for high renin states) to determine the activity of potential renin inhibitors.

Compound	potency estimated from few doses [nM]	relative potency (I50 of RIP compared to I50 of the compound) (relative to RIP (H-Pro-His-Pro-Phe-His-Phe-Phe-Val-Tyr-Lys-OH) assayed on the same day)
CC[C@H](C)[C@H](NC(=O)C(F)(F)[C@H](O)[C@H](CC(C)C)NC(=O)[C@H](Cc1c[nH]cn1)NC(=O)[C@H](Cc1ccccc1)NC(=O)OC(C)(C)C)C(=O)NCc1ccccn1 [N-tert-butyloxycarbonyl-L-phenylalanyl-L-histidyl-4S-amino-2,2-difluoro-3R-hydroxy-4-(2-methylpropyl)-1-oxobutyl-L-isoleucyl-2-pyridylmethylamide]	12	1,000
CC[C@H](C)[C@H](NC(=O)C(F)(F)C(=O)C(CC(C)C)NC(=O)[C@H](Cc1c[nH]cn1)NC(=O)[C@H](Cc1ccccc1)NC(=O)OC(C)(C)C)C(=O)NCc1ccccn1 (stereo partly drawn) [N-tert-butyloxycarbonyl-L-phenylalanyl-L-histidyl-4-amino-2,2-difluoro-4-(2-methylpropyl)-1,3-dioxobutyl-L-isoleucyl-2-pyridylmethylamide]	1.4	–
